# “And” between values parts separate entries of the source, which are not always exact repeats. Equal entries are not always repeated. “Also recorded” adds a separate entry of the source. Where two headings read alike, the source gives them in different places. Marks after values point to notes of the source that are not given here.
# Tests used:
# [1] = tested on: HMGB1-induced TNF release; assay: HMGB1-induced TNF release in human primary macrophages (ELISA); type: cell-based; settings: FIG. 17A
# Description: For all of these studies, TNF released was measured using an ELISA.
# [2] = tested on: PAMPs-induced TNF release (LPS, PGN, AGE, Poly I:C); assay: PAMPs-induced TNF release in human macrophages; type: cell-based; settings: LPS 4 ng/ml, poly I:C 50 μg/ml, PGN 5 μg/ml, S100A12 50 μg/ml; 16 hours
# [3] = tested on: DAMPs-induced TNF secretion (CIRP, SAA, PEDF, HSP 70, HSP90, H2A); assay: DAMPs-induced TNF secretion in human macrophages; type: cell-based; settings: 16 hours
# [4] = Solubility of K883; type: physicochemical
# Excerpt: This provides the basis for developing intravenous (IV) formulation that will serve as a benchmark for developing oral (PO) formulations.
# [5] = tested on: APAP-induced liver injury; assay: APAP-induced liver injury model; type: in vivo, male C57BL/6 mice
# [6] = tested on: cecal ligation and puncture-sepsis; assay: Cecal ligation and puncture (CLP) sepsis; type: in vivo; settings: male C57BL/6 mice; 500 μg/mouse IP once a day for 3 days starting 24 hours post CLP; n=15
# [7] = tested on: CCI-induced neuropathic pain; assay: Chronic constriction injury of the sciatic nerve (CCI) neuropathic pain; type: in vivo, male Wistar rats; settings: for Paw Withdrawal Latency: CCI
# Description: The CCI rats each received surgery. […] Mechanical and thermal sensitivity tests were also performed over time. Hargreaves Thermal Hypersensitivity test was administered to the rats as well as Von Frey mechanical hypersensitivity test.
# Rats (male Wistar, 150-180 gm, n=6/group) had CCI surgery. […] Two weeks after surgery, thermal (Hargreaves) or mechanical (von Frey) hypersensitivity was assessed. *: P<0.05 vs. PBS group. […]
# [8] = tested on: STZ-induced diabetes; assay: STZ-induced diabetes; type: in vivo, mice; settings: 500 μg/mouse repetitive administration; vs PBS
# Description: Mice were administered repetitive administration of […] (500 μg/mouse). […] Repetitive administration of […] was therefore shown to be beneficial in STZ-induced diabetes. […] (*: P<0.05 vs. PBS group. N=6-8 mice per group).
# [9] = tested on: F11 cells; assay: Disulfide HMGB1-induced calcium influx in F11 cells; type: cell-based; settings: relative fluorescent intensity; most inhibition at 50 μg/ml
# Excerpt: These studies all measured relative fluorescent intensity with FIG. 30C which included the largest amount of […]
# [10] = Single-dose tolerability; type: in vivo; settings: single-dose studies
# [11] = in vivo
# [12] = tested on: CCI-induced neuropathic pain; assay: Chronic constriction injury of the sciatic nerve (CCI) neuropathic pain; design: species or system male Wistar rats; settings: rat, in vivo
# [13] = in vivo; settings: male, Sprague-Dawley, rat; for AUC(0-inf): iv, 1 mg/kg
# [14] = Pharmacokinetics after intravenous administration in rats (LC-MS)
# [15] = tested on: APAP-induced liver injury; settings: comparative data, cited from earlier work
# [16] = tested on: cecal ligation and puncture-sepsis; settings: male C57BL/6 mice; 50 or 500 μg/mouse IP once a day for 4 days starting 24 hours post CLP; n=20; comparative data; cited from earlier work
# [17] = tested on: liver ischemia and reperfusion injury; settings: 500 μg/mouse IP at time of I/R surgery; 6 hours; vs vehicle; cited from earlier work
smiles,measurement,setting,value
NC(=O)N(CCC(=O)O)NC(=O)[C@H](CO)NC(=O)[C@H](CO)NC(=O)N(N)Cc1ccccc1 [K883],HMGB1-induced TNF secretion,[1],inhibition
same,PAMPs-induced TNF release,[2],failed to inhibit other PAMPS; also recorded: does not inhibit other PAMPs
same,TNF secretion induced by other DAMPs,[3],not inhibited
same,solubility,"[4]; aqueous with cosolvent or surfactant or cyclodextrin, PBS:PEG 300:propylene glycol:polysorbate 80 at 50:40:5:5, preliminary evidence, read-out: solubility in excipient mixture",> 5000 µg/mL
same,solubility,"[4]; water, read-out: solubility in water",< 100 µg/mL
same,serum ALT,"[5]; 50 ugs/mouse, vs vehicle controls",reduced serum ALT
same,liver necrosis (H&E histology),"[5]; APAP 350 mg/kg IP, K883 50 μg/mouse IP at 2 and 7 hours post-APAP, 24 hours, vs vehicle",reduced liver necrosis
same,mice surviving the toxicity of APAP (2 weeks),"[5]; APAP 400 mg/kg, 50 μg/mouse IP once-a-day for 5 days starting 2 hours post-APAP, 8 in the control group",14 mice out of 15
same,sepsis lethality (survival 2 weeks),[6],protects against sepsis lethality
same,CCI-induced thermal and mechanical hypersensitivity,"[7]; 800 μg/rat IP once a day for 3 days, Hargreaves, von Frey",ameliorated both mechanical and thermal hypersensitivity; also recorded: improved CCI-induced thermal and mechanical hypersensitivity
same,tolerance to repeated treatment,[7]; 800 μg/rat IP once daily for three days,did not develop tolerance
same,paw withdrawal,"[7]; CCI rat model, vehicle 3.73+/−0.58 (SD)",5.45 ± 0.98 s
same,Paw Withdrawal Latency,[7]; 0 hours post treatment,4.1 ± 1.0 s
same,Paw Withdrawal Latency,[7]; 2 hours post treatment,4.3 ± 1.2 s
same,Paw Withdrawal Latency,[7]; 6 hours post treatment,6.0 ± 0.6* sec
same,Paw Withdrawal Latency,[7]; 24 hours post treatment,5.0 ± 0.5 s
same,hyperglycemia,[8],delays hyperglycemia
same,insulitis,[8],reduces insulitis
same,weight gain,[8],improves weight gain
same,disulfide HMGB1-induced calcium influx,[9],inhibit disulfide hmgb1-induced calcium influx
same,tolerability,[10],well-tolerated
same,oral bioavailability,[11],low oral bioavailability
same,"CCI-induced CXCL1, TNF and IL-1β expression (spine)",[12],"reduce CCI-induced CSCL1, TNF and IL-1β expression"
same,CCI-induced CXCL1 and TNF expression (DRGs),[12],reduce CCI-induced CSCL1 and TNF expression
same,AUC(0-inf),[13]; Mean,3780 ng·h/mL
same,AUC(0-inf),[13]; individual rats,3810 ng·h/mL
same,half-life,[13]; serum half-life,> 60 min
same,"AUClast, individual rats","[14]; IV 1 mg/kg, 1 mg/kg",3772 ng·h/mL and 3807 ng·h/mL and 3749 ng·h/mL
same,"MRTlast, individual rats","[14]; IV 1 mg/kg, 1 mg/kg",32.1 min and 31.7 min and 36.4 min
same,"Vss, individual rats","[14]; IV 1 mg/kg, 1 mg/kg",0.163 L/kg
same,"t1/2, individual rats","[14]; IV 1 mg/kg, 1 mg/kg",78 min
same,"Plasma concentration, individual rats","[14]; IV 1 mg/kg, 0.50 hr, 1 mg/kg",2500 ng/mL and 3220 ng/mL
same,"Plasma concentration, individual rats","[14]; IV 1 mg/kg, 1.0 hr, 1 mg/kg",1160 ng/mL and 1300 ng/mL
same,"Plasma concentration, individual rats","[14]; IV 1 mg/kg, 2.0 hr, 1 mg/kg",130 ng/mL and 142 ng/mL
same,"Plasma concentration, individual rats","[14]; IV 1 mg/kg, 4.0 hr, 1 mg/kg",15.1 ng/mL and 17.7 ng/mL
same,"Plasma concentration, individual rats","[14]; IV 1 mg/kg, 6.0 hr, 1 mg/kg",4.04 ng/mL and 4.77 ng/mL
same,"Plasma concentration, individual rats","[14]; IV 1 mg/kg, 8.0 hr",2.01 ng/mL
same,"Plasma concentration, individual rats","[14]; IV 1 mg/kg, 8.0 hr, 1 mg/kg",0.871 ng/mL and 1.68 ng/mL
same,"AUClast, Mean","[14]; IV 1 mg/kg, mean of 3 rats",3776 ng·h/mL
same,"MRTlast, Mean","[14]; IV 1 mg/kg, mean of 3 rats",33.4 min
same,half-life,"[14]; male, Sprague-Dawley, rat, in vivo, 1 mg/kg, in vivo half-life (T½)",> 60 min
same,AUC(0-inf),"[14]; male, Sprague-Dawley, rat, in vivo, iv, 1 mg/kg",3780 ng·h/mL
same,concentration at 0.5 hr,"[14]; male, Sprague-Dawley, rat, in vivo, iv, 1 mg/kg, Plasma concentration, Mean, IV 1 mg/kg, 0.50 hr, mean of 3 rats",2910 ng/mL
same,concentration at 1 hr,"[14]; male, Sprague-Dawley, rat, in vivo, iv, 1 mg/kg, Plasma concentration, Mean, IV 1 mg/kg, 1.0 hr, mean of 3 rats",1090 ng/mL
same,concentration at 2 hr,"[14]; male, Sprague-Dawley, rat, in vivo, iv, 1 mg/kg, Plasma concentration, Mean, IV 1 mg/kg, 2.0 hr, mean of 3 rats",135 ng/mL
same,concentration at 4 hr,"[14]; male, Sprague-Dawley, rat, in vivo, iv, 1 mg/kg, Plasma concentration, Mean, IV 1 mg/kg, 4.0 hr, mean of 3 rats",16.6 ng/mL
same,concentration at 6 hr,"[14]; male, Sprague-Dawley, rat, in vivo, iv, 1 mg/kg, Plasma concentration, Mean, IV 1 mg/kg, 6.0 hr, mean of 3 rats",5.1 ng/mL
same,concentration at 8 hr,"[14]; male, Sprague-Dawley, rat, in vivo, iv, 1 mg/kg, Plasma concentration, Mean, IV 1 mg/kg, 8.0 hr, mean of 3 rats",1.52 ng/mL
same,concentration at 0.5 hr,"[14]; male, Sprague-Dawley, rat, in vivo, iv, 1 mg/kg, Plasma concentration, individual rats, IV 1 mg/kg, 0.50 hr",3020 ng/mL
same,concentration at 1 hr,"[14]; male, Sprague-Dawley, rat, in vivo, iv, 1 mg/kg, Plasma concentration, individual rats, IV 1 mg/kg, 1.0 hr",814 ng/mL
same,concentration at 2 hr,"[14]; male, Sprague-Dawley, rat, in vivo, iv, 1 mg/kg, Plasma concentration, individual rats, IV 1 mg/kg, 2.0 hr",133 ng/mL
same,concentration at 4 hr,"[14]; male, Sprague-Dawley, rat, in vivo, iv, 1 mg/kg, Plasma concentration, individual rats, IV 1 mg/kg, 4.0 hr",17 ng/mL
same,concentration at 6 hr,"[14]; male, Sprague-Dawley, rat, in vivo, iv, 1 mg/kg, Plasma concentration, individual rats, IV 1 mg/kg, 6.0 hr",6.49 ng/mL
NC(=O)[C@H](CCC(=O)O)NC(=O)[C@H](CO)NC(=O)[C@H](CO)NC(=O)[C@@H](N)Cc1ccccc1 [P5779],serum ALT,[15]; 500 ugs/mouse,significant reductions in ALT
same,liver necrosis (H&E histology),"[15]; APAP 350 mg/kg IP, P5779 50 or 500 μg/mouse IP at 2 and 7 hours, vs scrambled control peptide",reduced liver necrosis
same,Percent survival (2 weeks) post-APAP,"[15]; APAP 400 mg/kg, 500 μg/mouse IP once a day for 5 days, n=30",significantly improved
same,sepsis lethality (survival 2 weeks),[16],protects against sepsis lethality
same,Serum levels of ALT and AST,[17],reduced

# From patent publication US11471507B2, “HMGB1 antagonist” (THE FEINSTEIN INSTITUTES FOR MEDICAL RESEARCH, priority 2019, dated 2022)
